Experimental findings from patent publication US10851073B2, “Protein tyrosine phosphatase inhibitors and methods of use thereof” (Calico Life Sciences LLC, priority 2019, dated 2020) are described below.

Experiment [1] deals with T1, His tagged PTPN2 (TC45) protein (Homo sapiens, UniProt P17706).
T1 construct: made in house
T1 sequence (P17706 with tags, fused parts or gaps isoform P17706-2): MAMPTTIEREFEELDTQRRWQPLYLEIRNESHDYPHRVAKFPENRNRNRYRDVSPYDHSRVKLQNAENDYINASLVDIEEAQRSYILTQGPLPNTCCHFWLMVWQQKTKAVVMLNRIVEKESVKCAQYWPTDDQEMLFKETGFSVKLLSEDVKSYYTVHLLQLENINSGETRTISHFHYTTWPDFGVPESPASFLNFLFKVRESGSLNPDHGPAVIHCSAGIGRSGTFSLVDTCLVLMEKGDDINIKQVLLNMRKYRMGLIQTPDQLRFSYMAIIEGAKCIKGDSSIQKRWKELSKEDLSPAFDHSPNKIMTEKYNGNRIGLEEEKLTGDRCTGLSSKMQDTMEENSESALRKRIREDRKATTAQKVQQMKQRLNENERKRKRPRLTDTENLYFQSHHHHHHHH
Put plainly: Mobility shift assay used to determine potency of PTPN2 inhibitors. The format is biochemical. The note with it: enzyme 0.5 nM, substrate 2 μM; read-out: PTPN2 MSA IC50. The protocol: Example 227: Mobility Shift Assay Used to Determine Potency of PTPN2 Inhibitors
Compound activity was determined using in house His tagged PTPN2 (TC45) protein (SEQ ID NO: 1) in an in vitro enzymatic reaction. The enzymatic assay used to determine activity was a mobility shift assay using a LabChip EZ Reader by Caliper Life Sciences. The enzymatic reaction was carried out in assay buffer (50 mM HEPES pH 7.5, 1 mM EGTA, 10 mM EDTA, 0.01% Tween® 20, and 2 mM DTT). The compounds were dispensed on a white 384 well ProxiPlate™ (PerkinElmer Catalog #6008289) plate using the Labcyte Echo at varying concentrations (12 point, 1:3 dilution). The enzyme (at 0.5 nM) was incubated with compound for 10 minutes at room temperature. Then the substrate (phosphorylated insulin receptor probe sequence: ((OG488)-(NH—CH2—CH2—O—CH2—CH2—O—CH2—CO)-T-R-D-I-(PY)-E-T-D-Y-Y-R-K-K-NH2) (SEQ ID NO: 2) was added at 2 μM to the plates and incubated for another 10 minutes at room temperature. Finally, a quench solution (water and 4-bromo-3-(2-oxo-2-propoxyethoxy)-5-(3-{[1-(phenylmethanesulfonyl)piperidin-4-yl]amino}phenyl)thiophene-2-carboxylic acid) was added to the plates, which were then run on the EZ Reader (excitation 488 nm, emission 530 nm) to measure % conversion (the amount of phosphorylated substrate which was de-phosphorylated by PTPN2). […] The % inhibition was then used to calculate the IC50 values.

Experiment [2] concerns B16F10 mouse melanoma cells. In words: B16F10 IFNγ-induced cellular growth inhibition assay. The note with it: B16-F10, with 0.5 ng/mL IFNγ. Type of experiment: cell-based. As to the method:
Example 229: B16F10 IFNγ-Induced Cellular Growth Inhibition Assay B16F10 mouse melanoma cells (ATCC Cat^# CRL-6475, Manassas, Va.) were seeded at a density of 500 cells per well in a 384-well clear bottom plate (Corning Cat^#3765, Corning, N.Y.) in 25 μL total volume of DMEM+10% FBS (Sigma Cat^# D6429 and Sigma Cat^# F4135, St. Louis, Mo.). Cells were allowed to adhere overnight at 37° C.+5% CO2. On the following day, 12.5 μL of mouse IFNγ (RD systems Cat^#485-MI/CF, Minneapolis, Minn.) was added to half of the plate (columns 13-24) at a concentration of 2 ng/mL for a final assay concentration of 0.5 ng/mL of IFNγ. Media only (12.5 μL of DMEM+10% FBS) was added to the remainder of the plate (columns 1-12). Next, compounds resuspended in DMSO (Sigma Cat^# D2650) at 100 mM were diluted in semi-log dilutions in DMSO ranging from 100 mM to 0.001 mM and DMSO only controls were included. The compound/DMSO dilutions were further diluted 1:250 in DMEM+10% FBS, and 12.5 μL of these dilutions were added in triplicates to cells of both treatment arms (with and without IFNγ). Final compound concentrations ranged from 100 μM to 0.001 μM with a final DMSO concentration of 0.1%. Compounds were only dosed in the inner 240 wells, avoiding the outer 2-well perimeter of the plate to minim/ze edge effects. Finally, the plate was loaded into an IncuCyte® S3 Live Cell Analysis System (Essen Bioscience-Sartorius, Ann Arbor, Mich.) maintained in a 37° C.+5% CO2 incubator, allowed to equilibrate for 2 hours, and imaged every 6 hours for 5 days. Confluence over time for compound dilutions in the presence and absence of IFNγ was measured. Growth inhibition values were obtained when the “DMSO/no IFNγ” control reached confluence >95%. At these time points, for each compound the percent growth inhibition at every compound dose level was calculated relative to the “DMSO/with IFNγ” control and used to determine the IC50.

Molecules are shown by their SMILES. Read-outs that look alike come from different tables or passages of the source. Where only a bound is given, the exact number is not on record here.

Regarding `NCC1Cc2cc(O)c(N3CC(=O)NS3(=O)=O)c(F)c2C1` (centres unmarked) [Compound 267, 5-[2-(aminomethyl)-4-fluoro-6-hydroxy-2,3-dihydro-1H-inden-5-yl]-1λ^6,2,5-thiadiazolidine-1,1,3-trione 2,2,2-trifluoroacetate], the IC50 in experiment [1] is 10 to 100 nM.

`O=C1CN(c2c(O)cc3c(c2F)CN(C(=O)NCC2CCCO2)CC3)S(=O)(=O)N1` (centres unmarked) [Compound 263, 8-fluoro-6-hydroxy-N-[(oxolan-2-yl)methyl]-7-(1,1,4-trioxo-1λ^6,2,5-thiadiazolidin-2-yl)-3,4-dihydroisoquinoline-2(1H)-carboxamide]: the IC50 in experiment [1] fell in the range of 10 to 100 nM.

Turning to `COC(CCNC1CCc2cc(O)c(N3CC(=O)NS3(=O)=O)c(F)c2C1)C(F)(F)F` (centres unmarked) [Compound 152, 5-{1-fluoro-3-hydroxy-7-[(4,4,4-trifluoro-3-methoxybutyl)amino]-5,6,7,8-tetrahydronaphthalen-2-yl}-1λ^6,2,5-thiadiazolidine-1,1,3-trione], the half-maximal inhibitory concentration (IC50) in experiment [1] was in the range of 1 to 10 nM. Still for that read-out and setting: in the case of `CC(C)CCCC1CCc2cc(O)c(N3CC(=O)NS3(=O)=O)c(F)c2C1` (centres unmarked) [Compound 323, 5-[1-fluoro-3-hydroxy-7-(4-methylpentyl)-5,6,7,8-tetrahydronaphthalen-2-yl]-1λ^6,2,5-thiadiazolidine-1,1,3-trione] it was 1 to 10 nM. As to `Cc1nn(C)c(C)c1CCN1CCc2cc(O)c(N3CC(=O)NS3(=O)=O)c(F)c2C1` [Compound 209, 5-{8-fluoro-6-hydroxy-2-[2-(1,3,5-trimethyl-1H-pyrazol-4-yl)ethyl]-1,2,3,4-tetrahydroisoquinolin-7-yl}-1λ^6,2,5-thiadiazolidine-1,1,3-trione], the IC50 in experiment [2] (read-out: B16F10 GI IC50) is 1000 to 10000 nM. Regarding `O=C1CN(c2c(O)cc3c(c2F)CNCC3)S(=O)(=O)N1` [Compound 143, 5-(8-fluoro-6-hydroxy-1,2,3,4-tetrahydroisoquinolin-7-yl)-1λ^6,2,5-thiadiazolidine-1,1,3-trione], the IC50 in experiment [2] (read-out: B16F10 GI IC50) is 1000 to 10000 nM. Same read-out and setting: in the case of `O=C1CN(c2c(O)cc3c(c2F)CN(Cc2ccccn2)CC3)S(=O)(=O)N1` [Compound 184, 5-{8-fluoro-6-hydroxy-2-[(pyridin-2-yl)methyl]-1,2,3,4-tetrahydroisoquinolin-7-yl}-1λ^6,2,5-thiadiazolidine-1,1,3-trione] it was 10000 to 100000 nM; in that of `O=C1CN(c2c(O)cc3c(c2F)CN(CCN2CCNCC2)CC3)S(=O)(=O)N1` [Compound 247, 5-{8-fluoro-6-hydroxy-2-[2-(piperazin-1-yl)ethyl]-1,2,3,4-tetrahydroisoquinolin-7-yl}-1λ^6,2,5-thiadiazolidine-1,1,3-trione], 10000 to 100000 nM; in that of `O=C1CN(c2c(O)cc3c(c2F)CN(CCC2CCOCC2)CC3)S(=O)(=O)N1` [Compound 214, 5-{8-fluoro-6-hydroxy-2-[2-(oxan-4-yl)ethyl]-1,2,3,4-tetrahydroisoquinolin-7-yl}-1λ^6,2,5-thiadiazolidine-1,1,3-trione], 1000 to 10000 nM. Same read-out and setting: next, `O=C1CN(c2c(O)cc3c(c2F)CN(CCC2CCCCC2)CC3)S(=O)(=O)N1` [Compound 179, 5-[2-(2-cyclohexylethyl)-8-fluoro-6-hydroxy-1,2,3,4-tetrahydroisoquinolin-7-yl]-1λ^6,2,5-thiadiazolidine-1,1,3-trione]: 1000 to 10000 nM. Still for that read-out and setting: in the case of `O=C1CN(c2c(O)cc3c(c2F)CCCO3)S(=O)(=O)N1` [Compound 111, 5-(5-fluoro-7-hydroxy-3,4-dihydro-2H-1-benzopyran-6-yl)-1λ^6,2,5-thiadiazolidine-1,1,3-trione] it was 10000 to 100000 nM.

Take `O=C1CN(c2c(O)cc3c(c2F)CC(NCC2CC2)CC3)S(=O)(=O)N1` (centres unmarked) [Compound 103, 5-{7-[(cyclopropylmethyl)amino]-1-fluoro-3-hydroxy-5,6,7,8-tetrahydronaphthalen-2-yl}-1λ^6,2,5-thiadiazolidine-1,1,3-trione]: the values for the IC50 in experiment [1] and in experiment [2] (read-out: B16F10 GI IC50) were 10 to 100 nM and 1000 to 10000 nM, respectively.

Consider `O=C1CN(c2c(O)cc3c(c2F)CC(NCCOC(F)(F)F)CC3)S(=O)(=O)N1` (centres unmarked) [Compound 169, 5-(1-fluoro-3-hydroxy-7-{[2-(trifluoromethoxy)ethyl]amino}-5,6,7,8-tetrahydronaphthalen-2-yl)-1λ^6,2,5-thiadiazolidine-1,1,3-trione], for which the IC50 in experiment [1] lay within 10 to 100 nM; in experiment [2] (read-out: B16F10 GI IC50), 10000 to 100000 nM. For `CC(C)CCCN1CCc2cc(O)c(N3CC(=O)NS3(=O)=O)c(F)c2C1` [Compound 145, 5-[8-fluoro-6-hydroxy-2-(4-methylpentyl)-1,2,3,4-tetrahydroisoquinolin-7-yl]-1λ^6,2,5-thiadiazolidine-1,1,3-trione], in experiment [2] (read-out: B16F10 GI IC50), the IC50 lay within 1000 to 10000 nM.

`COCCCCN1CCc2cc(O)c(N3CC(=O)NS3(=O)=O)c(F)c2C1` [Compound 293, 5-[8-fluoro-6-hydroxy-2-(4-methoxybutyl)-1,2,3,4-tetrahydroisoquinolin-7-yl]-1λ^6,2,5-thiadiazolidine-1,1,3-trione]: the IC50 in experiment [2] (read-out: B16F10 GI IC50) fell in the range of 1000 to 10000 nM.

Take `Cc1noc(C)c1CCN1CCc2cc(O)c(N3CC(=O)NS3(=O)=O)c(F)c2C1` [Compound 211, 5-{2-[2-(3,5-dimethyl-1,2-oxazol-4-yl)ethyl]-8-fluoro-6-hydroxy-1,2,3,4-tetrahydroisoquinolin-7-yl}-1λ^6,2,5-thiadiazolidine-1,1,3-trione]: the half-inhibitory concentration (IC50) in experiment [2] (read-out: B16F10 GI IC50) was below 1000 nM. Same read-out and setting: in the case of `Cc1noc(C)c1CCN1Cc2c(cc(O)c(N3CC(=O)NS3(=O)=O)c2F)C(F)(F)C1` [Compound 306, 5-{2-[2-(3,5-dimethyl-1,2-oxazol-4-yl)ethyl]-4,4,8-trifluoro-6-hydroxy-1,2,3,4-tetrahydroisoquinolin-7-yl}-1λ^6,2,5-thiadiazolidine-1,1,3-trione] it was above 100000 nM. `O=C1CN(c2c(O)cc3ccc(NCCC4CC4)cc3c2F)S(=O)(=O)N1` [Compound X]: in experiment [2] (read-out: B16F10 Growth Inhibition IC50), the IC50 is 4100 nM. As for `NCCCN1CCc2cc(O)c(N3CC(=O)NS3(=O)=O)c(F)c2C1` [Compound 218, 5-[2-(3-aminopropyl)-8-fluoro-6-hydroxy-1,2,3,4-tetrahydroisoquinolin-7-yl]-1λ^6,2,5-thiadiazolidine-1,1,3-trione], the half-inhibitory concentration (IC50) in experiment [2] (read-out: B16F10 GI IC50) was in the range of 10000 to 100000 nM.

Take `O=C1CN(c2c(O)cc3c(c2F)CN(CCC2(C(F)(F)F)CC2)CC3)S(=O)(=O)N1` [Compound 243, 5-(8-fluoro-6-hydroxy-2-{2-[1-(trifluoromethyl)cyclopropyl]ethyl}-1,2,3,4-tetrahydroisoquinolin-7-yl)-1λ^6,2,5-thiadiazolidine-1,1,3-trione]: the half-inhibitory concentration (IC50) in experiment [2] (read-out: B16F10 GI IC50) fell in the range of 1000 to 10000 nM.

Consider `CC(C)(C)OC(=O)N1CCc2cc(O)c(N3CC(=O)NS3(=O)=O)c(F)c2C1` [Compound 221, tert-butyl 8-fluoro-6-hydroxy-7-(1,1,4-trioxo-1λ^6,2,5-thiadiazolidin-2-yl)-3,4-dihydroisoquinoline-2(1H)-carboxylate], for which the concentration for half-maximal inhibition (IC50) in experiment [2] (read-out: B16F10 GI IC50) is 1000 to 10000 nM.

The term IC50 denotes the concentration that inhibits the measured activity by half.
